pIC50: −log10 of the molar value.

The assay in a line: Inhibition of human IL-17A binding to recombinant human Fc-tagged IL-17RA preincubated with IL-17A for 30 mins followed by receptor addition and measured after 90 mins by AlphaLISA plate reader analysis. On the technique in general: Bead proximity is the source of the signal in Alpha formats.
Usually pIC50 stands for the negative decadic logarithm of the IC50, by convention in mol/L. For `CC[C@H](c1ccnc(NC(=O)[C@H](NC(=O)c2ccnn2C)[C@H]2CC[C@H](C)CC2)c1)N1C[C@@H](C(F)(F)F)NC1=O`, the pIC50 was 8.22.

In the case of `COCC(c1ccnc(NC(=O)[C@@H](NC(=O)c2nonc2C2CC2)[C@H]2CC[C@H](C)CC2)c1)N1C[C@@H](C(F)(F)F)NC1=O` (some centres undefined), the negative logarithm of the IC50 (pIC50) was 7.96.

For the molecule `CCc1ncoc1C(=O)N[C@H](C(=O)Nc1cc(C[C@H]2C[C@@H](C(F)(F)F)NC2=O)ccn1)C1CCC(F)(F)CC1`, the pIC50 is 6.33.

Turning to `CC(C)(C)OC(=O)N[C@H](C(=O)Nc1cc(CN2C[C@@H](C(F)(F)F)NC2=O)ccn1)[C@H]1CC[C@H](C)CC1`, the pIC50 is 6.83.

In the case of `C[C@H]1CC[C@H]([C@H](NC(=O)c2nonc2C2CC2)C(=O)Nc2cc(CN3C[C@@H](C(F)(F)F)NC3=O)ccn2)CC1`, the pIC50 was 7.60.

In the case of `COCC(NC(=O)CCC(F)(F)F)c1ccnc(NC(=O)[C@@H](NC(=O)c2ccnn2C(C)C)C2CCC(F)(F)CC2)c1` (some centres undefined), the pIC50 was 5.87.

In the case of `CCc1nonc1C(=O)N[C@H](C(=O)Nc1cc(C(COC)N2C[C@@H](C(F)(F)F)NC2=O)ccn1)[C@H]1CC[C@H](C)CC1` (some centres undefined), the negative-log IC50 (pIC50) was 8.40.

As for `CCc1nonc1C(=O)NC(C(=O)Nc1cc([C@@H](COC)N2C[C@@H](C(F)(F)F)NC2=O)ccn1)C1CCC(F)CC1` (some centres undefined), the pIC50 was 7.77.

For the molecule `Cn1nccc1C(=O)N[C@H](C(=O)Nc1cc(OC2CCNC2=O)ccn1)[C@H]1CC[C@H](C)CC1` (some centres undefined), the pIC50 is 5.05.

Consider `CCc1nonc1C(=O)N[C@H](C(=O)Nc1cc([C@@H](COC)N2CC(F)(F)CNC2=O)ccn1)C1CCC(F)(F)CC1`, for which the pIC50 is 7.72.

As to `CCc1nocc1C(=O)N[C@H](C(=O)Nc1cc([C@@H](COC)N2C[C@@H](C(F)(F)F)NC2=O)ccn1)[C@H]1CCCC(F)(F)C1`, the pIC50 is 7.29.

As to `CCC[C@H](c1ccnc(NC(=O)[C@@H](NC(=O)c2nocc2CC)C2CCC(F)(F)CC2)c1)N1C[C@@H](C(F)(F)F)NC1=O`, the pIC50 was 7.74.

Turning to `CC1(C)CN(Cc2ccnc(NC(=O)[C@@H](NC(=O)c3nonc3C3CC3)[C@H]3CC[C@H](C)CC3)c2)C(=O)N1`, the pIC50 was 6.98.

For `CC(C)n1nccc1C(=O)N[C@H](C(=O)Nc1cc(O[C@@H]2C[C@@H](C(F)(F)F)NC2=O)ccn1)[C@H]1CC[C@H](C)CC1`, the pIC50 was 5.92.
